Experimental data published in the supplement of paper PMC10307832.

How the values were obtained:
Test in all cases: relative viability (nuclei count vs DMSO), 5 days (fraction); higher = more cells survive
Cediranib + Bortezomib = compound: COc1cc2c(Oc3ccc4[nH]c(C)cc4c3F)ncnc2cc1OCCCN1CCCC1 [Cediranib] + CC(C)C[C@H](NC(=O)[C@H](Cc1ccccc1)NC(=O)c1cnccn1)B(O)O [Bortezomib] (partner 0.002 µM)
Outline: (§1)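 Lung cancer cell lines, seeded in 1536-well plates, were treated the following day by pin tool with a single drug or with five library-drug doses (not always all listed) in √10 steps on top of a fixed anchor-drug dose. Cells were fixed and nuclei stained in one step after 5 days, and nuclei were counted. Relative viability is the nuclei count for treated wells divided by that for vehicle wells, reported as medians of duplicate plates.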

Cediranib + Pemetrexed = compound: COc1cc2c(Oc3ccc4[nH]c(C)cc4c3F)ncnc2cc1OCCCN1CCCC1 [Cediranib] + Nc1nc2[nH]cc(CCc3ccc(C(=O)N[C@@H](CCC(=O)O)C(=O)O)cc3)c2c(=O)[nH]1 [Pemetrexed] (partner 0.2 µM)
Outline: as §1

Cediranib + Pictilisib = compound: COc1cc2c(Oc3ccc4[nH]c(C)cc4c3F)ncnc2cc1OCCCN1CCCC1 [Cediranib] + CS(=O)(=O)N1CCN(Cc2cc3nc(-c4cccc5[nH]ncc45)nc(N4CCOCC4)c3s2)CC1 [Pictilisib] (partner 1 µM)
Outline: as §1

[1] = compound: O=C(C[C@H]1NCCC[C@@H]1O)Cn1cnc2cc(Br)c(Cl)cc2c1=O (racemic) [Halofuginone] + CC(C)C[C@H](NC(=O)[C@H](Cc1ccccc1)NC(=O)c1cnccn1)B(O)O [Bortezomib] (partner 0.002 µM)
Outline: as §1

| Cell Line | relative viability (Cediranib + Bortezomib; first compound 0.04 µM) | relative viability (Cediranib + Bortezomib; first compound 0.1265 µM) | relative viability (Cediranib + Bortezomib; first compound 0.4 µM) | relative viability (Cediranib + Bortezomib; first compound 1.265 µM) | relative viability (Cediranib + Bortezomib; first compound 4 µM) | relative viability (Cediranib + Pemetrexed; first compound 0.04 µM) | relative viability (Cediranib + Pemetrexed; first compound 0.1265 µM) | relative viability (Cediranib + Pemetrexed; first compound 0.4 µM) | relative viability (Cediranib + Pemetrexed; first compound 1.265 µM) | relative viability (Cediranib + Pemetrexed; first compound 4 µM) | relative viability (Cediranib + Pictilisib; first compound 0.04 µM) | relative viability (Cediranib + Pictilisib; first compound 0.1265 µM) | relative viability (Cediranib + Pictilisib; first compound 0.4 µM) | relative viability (Cediranib + Pictilisib; first compound 1.265 µM) | relative viability (Cediranib + Pictilisib; first compound 4 µM) | relative viability ([1]; first compound 0.001 µM) | relative viability ([1]; first compound 0.003162 µM) | relative viability ([1]; first compound 0.01 µM) | relative viability ([1]; first compound 0.03162 µM) | relative viability ([1]; first compound 0.1 µM) |
| --- | --- | --- | --- | --- | --- | --- | --- | --- | --- | --- | --- | --- | --- | --- | --- | --- | --- | --- | --- | --- |
| 201T | 1.16 | 1.19 | 1.09 | 1.05 | 1.09 | 0.344 | 0.314 | 0.327 | 0.359 | 0.355 | 0.725 | 0.699 | 0.639 | 0.632 | 0.7 | 1.06 | 1.1 | 1.15 | 1.1 | 1.16 |
| A549 |  |  |  |  |  |  |  |  |  |  | 0.538 | 0.628 | 0.485 | 0.477 | 0.532 |  |  |  |  |  |
| A-427 | 0.998 |  | 0.972 | 0.925 | 1.01 | 0.921 |  | 0.955 | 0.962 | 1.08 | 0.716 |  | 0.608 | 0.573 | 0.707 | 1 | 0.869 | 1 | 0.954 | 0.932 |
| ABC-1 | 0.33 | 0.272 | 0.307 |  | 0.305 |  |  |  |  |  | 0.786 | 0.566 | 0.69 |  | 0.737 | 0.255 | 0.328 | 0.24 | 0.367 | 0.279 |
| BEN | 0.872 | 0.432 | 0.861 | 0.559 | 0.724 | 0.921 | 0.549 | 0.693 | 0.501 | 0.786 | 0.584 | 0.497 | 0.509 | 0.425 | 0.504 | 0.865 | 0.826 | 0.865 | 0.682 | 0.408 |
| CAL-12T | 0.88 |  | 0.931 | 1.07 | 1.12 | 1.03 | 1.29 | 1.14 | 1.13 | 1.03 | 0.431 |  | 0.438 | 0.319 | 0.501 | 1.13 | 1.04 |  | 1.37 | 0.894 |
| COR-L23 | 0.944 | 1.05 | 0.867 | 0.969 | 1.18 | 0.203 | 0.209 | 0.2 | 0.214 | 0.202 | 0.75 | 0.821 | 0.775 | 0.501 | 0.783 | 1.15 | 1.1 | 0.963 | 0.965 | 0.184 |
| Calu-6 | 1.03 | 0.977 | 1.05 | 0.968 | 1.03 |  |  |  |  |  | 0.97 | 0.985 | 0.931 | 0.824 | 1.13 | 1.04 | 1.17 | 0.974 | 0.452 | 0.137 |
| EBC-1 | 0.702 | 0.628 | 0.528 | 0.687 | 0.687 |  |  |  |  |  | 0.417 | 0.516 | 0.402 | 0.407 | 0.467 | 0.507 | 0.616 | 0.458 | 0.325 | 0.135 |
| IA-LM | 1.01 | 1.14 | 0.926 | 0.771 | 0.912 |  |  |  |  |  | 0.369 | 0.577 | 0.315 | 0.406 | 0.361 | 0.894 | 0.741 | 0.664 | 0.533 | 0.0776 |
| LK-2 |  |  |  |  |  | 0.324 | 0.202 | 0.247 | 0.177 | 0.209 | 0.607 | 0.524 | 0.573 | 0.591 | 0.319 |  |  |  |  |  |
| NCI-H358 |  |  |  |  |  | 0.176 | 0.198 | 0.168 | 0.17 | 0.187 | 0.323 | 0.462 | 0.314 | 0.271 | 0.404 |  |  |  |  |  |
| NCI-H522 |  |  |  |  |  | 1.16 | 0.713 | 1.14 | 0.863 | 0.995 |  |  |  |  |  |  |  |  |  |  |
| NCI-H727 | 0.807 | 0.55 | 0.789 | 0.64 | 0.747 |  |  |  |  |  | 0.515 | 0.169 | 0.289 | 0.325 | 0.3 | 0.981 | 0.798 | 0.927 | 0.856 | 0.468 |
| NCI-H1299 | 1.06 | 1.06 | 1.03 | 1.03 | 1.04 |  |  |  |  |  | 0.866 | 0.844 | 0.719 | 0.853 | 0.748 | 1.08 | 1.02 | 1 | 0.986 | 0.851 |
| NCI-H1395 |  |  |  |  |  | 0.915 | 0.985 | 0.825 | 0.76 | 0.801 | 0.58 |  | 0.593 | 0.557 | 0.591 |  |  |  |  |  |
| NCI-H1648 |  |  |  |  |  | 0.563 | 0.551 | 0.617 | 0.634 | 0.372 |  |  |  |  |  |  |  |  |  |  |
| NCI-H1703 | 0.309 | 0.294 | 0.192 | 0.181 | 0.206 |  |  |  |  |  | 0.226 | 0.209 | 0.209 | 0.194 | 0.221 | 0.363 | 0.333 | 0.305 | 0.282 | 0.224 |
| NCI-H1793 |  |  |  |  |  | 0.822 | 0.991 | 0.693 | 0.568 | 1.14 | 0.404 | 0.294 | 0.345 |  | 0.299 |  |  |  |  |  |
| NCI-H1944 |  |  |  |  |  | 0.709 | 0.473 | 0.562 | 0.593 | 0.713 | 0.33 | 0.494 | 0.328 | 0.297 | 0.328 |  |  |  |  |  |
| NCI-H2170 |  |  |  |  |  | 0.295 |  | 0.233 | 0.264 | 0.258 | 0.259 | 0.275 | 0.306 | 0.254 | 0.301 |  |  |  |  |  |
| NCI-H2342 |  |  |  |  |  | 0.764 | 0.808 | 0.805 | 0.681 | 0.797 |  |  |  |  |  |  |  |  |  |  |
| SK-MES-1 |  |  |  |  |  | 1.02 | 1.01 | 0.901 | 0.964 | 1.03 | 0.349 | 0.441 | 0.284 | 0.391 | 0.383 |  |  |  |  |  |
| SW 900 |  |  |  |  |  | 0.52 | 0.509 | 0.463 | 0.46 | 0.537 |  |  |  |  |  |  |  |  |  |  |
